{
  "source": "patent US20110144194A1",
  "about": "“CHROMENONE DERIVATIVES USEFUL FOR THE TREATMENT OF NEURODEGENERATIVE DISEASES” (priority 2008, published 2011)",
  "note": "Entries after “also recorded” stand apart in the source; their conditions may differ.",
  "data": [
    {"test_system": "SH-SY5Y neuroblastoma cell line", "experiment": "Differentiation of human neuroblastoma cell line SH-SY5Y into neurons: real-time PCR of Hash1 and Notch1", "assay_type": "cell-based", "conditions": "1 μM, 24 hours; vs 0.1% DMSO vehicle; β-actin internal control", "experimental": "SH-SY5Y cells were cultured in 6 well plates at a density of 500000 cells per well and was maintained in DMEM with 10% FBS. After 24 h, the cells were treated with test compounds (1 μM) or 0.1% DMSO vehicle as control. RNA extraction was performed after 24 hours of incubation and gene expression was analyzed by real-time PCR.\nThe specific primer pairs directed against human Hash1, Notch1 and beta-actin are from the online database qprimerdepot (http://primerdepot.nci.nih.gov/).\nThe human homolog of Mash1, Hash1, is expressed in neuroblastoma cell lines. […] 2001, 36,132]. Therefore, we tested whether compounds of general Formula (I) and (II) could induce the differentiation of SH-SY5Y neuroblastoma cell line by modulating the gene expression of Hash1 and Notch1.\nFIG. 3: Compound A and B induces neuroblastoma differentiation into a neuronal phenotype. Real-time PCR gene expression analysis in SH-SY5Y neuroblastoma cell line. RNA extraction was performed after 24 hours of incubation with compound A and B (1 μM) or with 0.1% DMSO vehicle as control.", "values": [
      {"smiles": "COc1cc(-c2oc3ccc(CCCCCCCCCCCCO)cc3c(=O)c2O)ccc1O", "note": "[Compound A, 3-hydroxy-2-(4-hydroxy-3-methoxyphenyl)-6-(12-hydroxydodecyl)-4H-chromen-4-one]", "Hash1 transcripts": "inhibit; also recorded: significantly decreased", "Notch1 transcripts": "inhibit; also recorded: significantly decreased"},
      {"smiles": "COc1cc(-c2oc3ccc(CCCCCCCCCCCCCO)cc3c(=O)c2O)ccc1O", "note": "[Compound B, 3-hydroxy-2-(4-hydroxy-3-methoxyphenyl)-6-(13-hydroxytridecyl)-4H-chromen-4-one]", "Hash1 transcripts": "inhibit; also recorded: significantly decreased", "Notch1 transcripts": "inhibit; also recorded: significantly decreased"}
    ]},
    {"test_system": "microglial cells", "experiment": "Nitrite quantification by Griess method in LPS-activated microglial cells", "assay_type": "cell-based", "conditions": "test compound at 1 μM; 10 ng/ml LPS; medium collected after 48 h; control 0.1% DMSO; read-out: % of NO/control", "experimental": "(§1) The experiments that were carried out concern the ability of these molecules to inhibit the liberation of nitrites and Tumor Necrosis Factor-alpha (TNF-α) in the activated microglia. NO and TNF-α production are two common parameters related to inflammatory processes.\nTo evaluate the nitrite production, microglial cells were cultured in DMEM-F12 medium containing 2% heat-inactivated FBS in 48 well plates at a density of 20000 cells per well. Peripheral wells of the plate were discarded. After 72 h, 400 μL out of 500 μL medium was replaced by 350 μL fresh medium. The cells were treated with each molecule to be tested by adding 50 μL of a 10× solution to obtain a final concentration ranging from 0.1 μM to 1 μM. Each treatment was done in duplicates. 10 ng/ml LPS was added after 1 hour and the medium was collected after 48 h and stored at −20° C. until analysis. To quantify the NO production, nitrites were measured using Griess reactive (sulfanilamide 1%, Sigma; N-(1-Naphthyl)ethylenediamine 0.1%, Sigma; phosphoric acid 2.5%). Briefly, 100 μL of medium was placed into a 96 well plate and 100 μL of Griess reactive was added. After […] incubation at RT in the dark, the OD was measured at 550 nm.\nThe ability of each test compound to decrease the production of nitrite is presented as a percent decrease in OD with respect to the absorbance of the control condition i.e. 0.1% DMSO.", "units": {"activity at 1 µM": "%"}, "values": [
      {"smiles": "COc1ccc(-c2oc3ccc(CCCCCCCCCCCCO)cc3c(=O)c2O)cc1OC", "activity at 1 µM": "87.7 ± 7.7"},
      {"smiles": "COc1ccc(-c2oc3ccc(CCCCCCCCCCCCCO)cc3c(=O)c2O)cc1OC", "activity at 1 µM": "89 ± 7.6"},
      {"smiles": "O=c1c(O)c(-c2ccc(O)c(O)c2)oc2ccc(CCCCCCCCCCCCO)cc12", "activity at 1 µM": "84.5 ± 5.9"},
      {"smiles": "O=c1c(O)c(-c2ccc(O)c(O)c2)oc2ccc(CCCCCCCCCCCCCO)cc12", "activity at 1 µM": "86.3 ± 4.2"},
      {"smiles": "COc1cc(-c2oc3ccc(CCCCCCCCCCCCCO)cc3c(=O)c2OC)ccc1O", "activity at 1 µM": "95.3 ± 4.8"},
      {"smiles": "COc1ccc(-c2oc3ccc(CCCCCCCCCCCCCO)cc3c(=O)c2O)cc1O", "activity at 1 µM": "103 ± 4"},
      {"smiles": "COc1cc(-c2oc3cc(O)c(CCCCCCCCCCCCO)cc3c(=O)c2O)ccc1O", "activity at 1 µM": "90.3 ± 3.9"},
      {"smiles": "COc1cc(-c2oc3cc(O)c(CCCCCCCCCCCCCO)cc3c(=O)c2O)ccc1O", "activity at 1 µM": "98.2 ± 1"},
      {"smiles": "COc1cc(-c2oc3cc(O)c(CCCCCCCCCCCCO)c(O)c3c(=O)c2O)ccc1O", "activity at 1 µM": "99.6 ± 1.5"},
      {"smiles": "COc1cc(-c2oc3cc(O)c(CCCCCCCCCCCCCO)c(O)c3c(=O)c2O)ccc1O", "activity at 1 µM": "109 ± 10.5"},
      {"smiles": "O=c1c(O)c(-c2ccc(O)c(O)c2)oc2cc(O)c(CCCCCCCCCCCCO)c(O)c12", "activity at 1 µM": "81.6 ± 4"},
      {"smiles": "O=c1c(O)c(-c2ccc(O)c(O)c2)oc2cc(O)c(CCCCCCCCCCCCCO)c(O)c12", "activity at 1 µM": "82.4 ± 6.3"},
      {"smiles": "COc1c(CCCCCCCCCCCCO)c(O)cc2oc(-c3ccc(O)c(O)c3)c(O)c(=O)c12", "activity at 1 µM": "112 ± 1.7"},
      {"smiles": "COc1c(CCCCCCCCCCCCCO)c(O)cc2oc(-c3ccc(O)c(O)c3)c(O)c(=O)c12", "activity at 1 µM": "91.5 ± 2.6"},
      {"smiles": "COc1cc(-c2oc3cc(O)c(CCCCCCCCCCCCO)c(OC)c3c(=O)c2O)ccc1O", "activity at 1 µM": "97.6 ± 6.9"},
      {"smiles": "COc1cc(-c2oc3cc(O)c(CCCCCCCCCCCCCO)c(OC)c3c(=O)c2O)ccc1O", "activity at 1 µM": "96.6 ± 4.2"},
      {"smiles": "COc1cc(-c2cc(=O)c3cc(CCCCCCCCCCCCCO)ccc3o2)ccc1O", "activity at 1 µM": "102 ± 3.8"},
      {"smiles": "COc1cc(-c2oc3cc(O)c4cc(CCCCCCCCCCCCO)oc4c3c(=O)c2O)ccc1O", "activity at 1 µM": "112 ± 8"},
      {"smiles": "O=c1c(O)c(-c2ccc(O)c(O)c2)oc2cc(O)c3cc(CCCCCCCCCCCCO)oc3c12", "activity at 1 µM": "112 ± 9.2"},
      {"smiles": "COc1cc(-c2oc3ccc(CCCCCCCCCCCO)cc3c(=O)c2O)ccc1O", "note": "[drawing 16]", "activity at 1 µM": "72 ± 3"},
      {"smiles": "COc1cc(-c2oc3ccc(CCCCCCCCCCCCO)cc3c(=O)c2O)ccc1O", "note": "[drawing 17]", "activity at 1 µM": "61.1 ± 3.1"},
      {"smiles": "COc1cc(-c2oc3ccc(CCCCCCCCCCCCCO)cc3c(=O)c2O)ccc1O", "note": "[drawing 18, 3-hydroxy-2-(4-hydroxy-3-methoxyphenyl)-6-(13-hydroxytridecyl)-4H-chromen-4-one]", "activity at 1 µM": "59.8 ± 2.1"},
      {"smiles": "COc1cc(-c2oc3ccc(CCCCCCCCCCCCCCO)cc3c(=O)c2O)ccc1O", "note": "[drawing 19]", "activity at 1 µM": "77.5 ± 3.9"},
      {"smiles": "CCCCCCCCCCCCCc1ccc2oc(-c3ccc(O)c(OC)c3)c(O)c(=O)c2c1", "note": "[drawing 35]", "activity at 1 µM": "85 ± 0.9"}
    ]},
    {"test_system": "microglial cells", "experiment": "TNF-α quantification by ELISA in supernatant of microglial cells", "assay_type": "cell-based", "conditions": "test compound at 1 μM; medium collected 48 h after treatment; control 0.1% DMSO", "experimental": "as §1\nTo quantify the presence of TNF-α in the supernatant of microglial cells, the medium was collected 48 h after treatment as described above. The ELISA 96 well plate was incubated overnight with the capture antibody (0.8 μg/ml, R&D). 10 μl of each sample was diluted with 90 μL of incubation buffer (PBS-BSA 1%, pH 7.2-7.4) and the plate was incubated for 2 h at RT. The plate was washed 3 times and incubated for 2 h with the detection antibody (150 ng/mL, R&D). […] After […] incubation at RT, the reaction was stopped with an equal volume of a 10% solution of sulfuric acid and the OD was measured at 450 nm.\nThe ability of each test compound to decrease the production of TNF-α is presented as a percent decrease in OD with respect to the absorbance of the control condition i.e. 0.1% DMSO.", "units": {"% of TNF-α/control": "%"}, "values": [
      {"smiles": "COc1cc(-c2oc3ccc(CCCCCCCCCCCO)cc3c(=O)c2O)ccc1O", "note": "[drawing 38]", "% of TNF-α/control": "69.2 ± 3.9"},
      {"smiles": "COc1cc(-c2oc3ccc(CCCCCCCCCCCCCO)cc3c(=O)c2O)ccc1O", "note": "[drawing 40]", "% of TNF-α/control": "77.2 ± 9.4"},
      {"smiles": "COc1cc(-c2oc3ccc(CCCCCCCCCCCCCCO)cc3c(=O)c2O)ccc1O", "note": "[drawing 41]", "% of TNF-α/control": "75.4 ± 17.2"},
      {"smiles": "CCCCCCCCCCCCCc1ccc2oc(-c3ccc(O)c(OC)c3)c(O)c(=O)c2c1", "note": "[drawing 42]", "% of TNF-α/control": "91.2 ± 7.9"}
    ]},
    {"test_system": "NSCs derived neurospheres", "experiment": "Differentiation of NSCs to neurons: real-time PCR of Hes5 and Mash1 in neurospheres (Notch signaling)", "assay_type": "cell-based, mouse", "conditions": "1 μM, vs 0.1% DMSO vehicle, β-actin internal control", "experimental": "The NSCs derived neurospheres culture was established from embryonic mouse cortices. Neurospheres were maintained in Neurobasal-A medium supplemented with B27 w/o retinoic acid, 2 mM Glutamine, 20 ng/ml EGF and antibiotics. The neurospheres were dissociated using a non enzymatic dissociation medium (Invitrogen) and the single cell suspension added to a flask with fresh medium. To differentiate the neurospheres into neurons, oligodendrocytes and astrocytes, 3 to 4 days old neurospheres were cultured in poly-ornithine treated 35 mm dishes. Cells were treated with test compounds (1 μM) or 0.1% DMSO vehicle as control in Neurobasal-A medium supplemented with B27 w/o retinoic acid, 2 mM Glutamine, antibiotics, 2 ng/ml EGF and 0.5% of heat inactivated FBS. RNA extraction was performed after 24 hours of incubation and gene expression was analyzed by real-time PCR.\nThe primer pairs for mouse Mash1, Hes5 and beta-actin were designed with the beacon designer software (premierbiosoft).\nNotch signaling controls a wide variety of cell fate decisions, including the differentiation of NSCs during neurogenesis [Artavanis-Tsakonas, S. et al., Science, 1999, 284, 770]. […] Notch activation induces the expression of the downstream effectors Hes1 and Hes5, which down-regulate gene transcription of b-HLH transcription factors such as Mash1. Therefore, we tested whether compounds of general Formula (I) and (II) could modulate Notch signalling in NSCs. […] Inhibition of the Hes5 gene expression in the treated cultures was further correlated with an increase of Mash1 transcripts, a b-HLH factor involved in neuronal specification and differentiation [Ito, H. et al., J Neurosci Res. 2003, 71, 648].\nFIG. 2: Compound A and B induces NSCs differentiation into neurons. Real-time PCR gene expression analysis in neurospheres. RNA extraction was performed after […] of incubation with compound A and B (1 μM) or with 0.1% DMSO vehicle as control.", "values": [
      {"smiles": "COc1cc(-c2oc3ccc(CCCCCCCCCCCCO)cc3c(=O)c2O)ccc1O", "note": "[Compound A, 3-hydroxy-2-(4-hydroxy-3-methoxyphenyl)-6-(12-hydroxydodecyl)-4H-chromen-4-one]", "Hes5 gene expression": "decrease", "Mash1 transcripts": "increase; also recorded: significantly increased"},
      {"smiles": "COc1cc(-c2oc3ccc(CCCCCCCCCCCCCO)cc3c(=O)c2O)ccc1O", "note": "[Compound B, 3-hydroxy-2-(4-hydroxy-3-methoxyphenyl)-6-(13-hydroxytridecyl)-4H-chromen-4-one]", "Hes5 gene expression": "decrease", "Mash1 transcripts": "increase; also recorded: significantly increased"}
    ]},
    {"test_system": "microglial cell line", "experiment": "Real-time PCR gene expression analysis in microglial cell line with or without LPS activation", "assay_type": "cell-based", "conditions": "1 μM, 3 hours incubation, with or without LPS 0.01 μg/ml; normalized to β-actin", "experimental": "To evaluate mRNA expression levels, total RNA was extracted using invisorb\nRNA extraction kit (Invitek). The concentration was determined by reading the OD at 260 nm. Retro-transcription was performed using Im-Prom-II™ Reverse Transcription System (Promega) with 1 μg of total RNA.\nThe reaction mixture contained 12.5 μl 2× SYBR Green mastermix (Biorad), 1 μl cDNA, 1 μl of each primer (12.5 μM) and 9.5 μl of H2O. The real-time PCR amplification was controlled by the MyIQ5 system (Biorad). After activation of the enzyme at 94° C. for […], the amplification was done by cycling 40 times between a denaturation step at 94° C. and the annealing step at 54.5° C. Gene expression was analyzed using the provided software and normalized to beta-actin expression.\nFIG. 1: Compound B inhibits microglial activation in vitro. Real-time PCR gene expression analysis in microglial cell line. RNA extraction was performed after 3 hours of incubation with compound B (1 μM), with or without LPS activation (0.01 μg/ml).", "values": [
      {"smiles": "COc1cc(-c2oc3ccc(CCCCCCCCCCCCCO)cc3c(=O)c2O)ccc1O", "note": "[Compound B, 3-hydroxy-2-(4-hydroxy-3-methoxyphenyl)-6-(13-hydroxytridecyl)-4H-chromen-4-one]", "Expression of transcripts (iNOS, TNF-α gene expression) in treated microglial cells": "significantly decreased"}
    ]}
  ]
}
